Data from patent publication US20260364078A1, “PURINE NUCLEOSIDE PHOSPHORYLASE INHIBITORS FOR THE TREATMENT OF METABOLIC SYNDROME AND ASSOCIATED CONDITIONS” (METASHAPE PHARMA AG, priority 2022, published 2026).

Assays:
DIO mouse model [1] = assay: Example 2: low and intermittent dosing in DIO mouse model; format: in vivo, C57/BL6J mice; details: 2 mg/kg p.o., 3 days a week, vs control
Description: The aim of this study is to determine the effect of a low and intermittent dosing regime of ulodesine hemi glutarate on the following parameters: weight gain, food intake, fasting blood glucose concentration, serum insulin, serum cholesterol, plasma liver enzymes aspartate aminotransferase (AST) and alanine transaminase (ALT), inguinal white adipose tissue (iWAT), BAT; inosine in plasma and NAD+ in whole blood, and expression of lipogenesis (fatty acid synthesis) markers in iWAT and thermogenic markers in BAT. The study will assess ulodesine hemi glutarate efficacy on the listed parameters in the DIO mouse model of obesity and metabolic dysfunction.
Method: C57/BL6J mice were fed obesogenic diet D12492 (60 kcal % fat) from age 6 weeks. Nineteen week old mice (approximately 50 g) were either treated with vehicle (control) or ulodesine hemi glutarate at 2 mg/kg for 3 days a week (days 1, 2 and 3), given orally, over a 28 day period. On day minus 2 and on day 28, animals were fasted for 6 hr (only food withdrawn) and blood was collected for both blood glucose and cholesterol. On day 28 plasma liver enzymes (AST and ALT) and insulin were determined and additional plasma and whole blood was frozen and used for inosine and NAD+ measurement. BAT and iWAT was collected at the end of the study, weighed and quantitative PCR was performed for the lipogenesis markers Stearoyl CoA desaturase 1 (SCD-1) and fatty acid synthetase (FAS) and the thermogenesis marker uncoupling protein 1 (UCP-1). Inosine and NAD+ levels in stored plasma and whole blood respectively were determined by LC/MS/MS.

DIO mouse model [2] = assay: Example 3: liver parameters in DIO mouse model; format: in vivo, C57/BL6J mice; details: 2 mg/kg p.o., 3 days a week, 8 weeks
Description: The aim of this study is to determine the effect of low and intermittent dosing of ulodesine hemi glutarate on the liver parameters: liver weight, total cholesterol, triglycerides, AST and ALT. The study assessed ulodesine hemi glutarate efficacy on the listed parameters in the DIO mouse model of obesity and metabolic dysfunction.
Method: C57/BL6J mice were fed obesogenic diet D12492 (60 kcal % fat) from age 6 weeks. Eighteen weeks old mice (approximately 40 g) were either treated with vehicle (control) or ulodesine hemi glutarate at 2 mg/kg for 3 days a week (days 1, 2 and 3) given orally for 8 weeks. At the end of eight weeks, the liver was removed and the following parameters were assessed: total cholesterol, triglycerides, AST and ALT.

[3] = Polymorph form conversion / solid-state stability (XRPD, VT-XRPD); format: physicochemical
Description: To confirm stability and suitability of Ulodesine hemi-glutarate Type A, a polymorph screening was conducted to search for other potential crystal forms and identify the most suitable form to confirm the previous findings.
Using glutarate Type A as starting material, a polymorph screening was conducted under 100 conditions through methods of anti-solvent addition, solid vapor diffusion, liquid vapor diffusion, slow evaporation, polymer-induced crystallization, temperature cycling, slurry at room temperature (RT)/50 °C and slow cooling.
X-ray powder diffraction data at variable temperature was collected at on a Malvern Panalytical Empyrean diffractometer. Flat a few milligrams of sample on a sample holder and compact it by a glass slide with protection of a piece of weighting paper. An X-ray generator of 1800 W was employed at 45 kV and 40 mA and was equipped with an X-ray tube of Cu (Kα), with the Kα2/Kα1 intensity ratio of 0.50 (1.54439 Å/1.5406 Å). Data were collected from 3° to […] (2θ) at a step size of 0.026° (2θ) with time per step of 49.7 s.
Glutarate Type B (E0007-A01-06) was only observed by heating glutarate Type A to 130 °C using X-ray powder diffractometer at variable temperature mode (VT-XRPD).
Based on the characterization results, glutarate Type C was speculated as a channel hydrate (the water molecules of a channel hydrate lie next to other water molecules of adjoining unit cell, forming channels through the crystals).
Type C was re-prepared at 100 mg in triplicate via temperature cycling slurry in anisole/MeOH (1:2, v/v).

O=c1[nH]cnc2c(CN3C[C@H](CO)[C@@H](O)C3)c[nH]c12 [ulodesine]
blood glucose (DIO mouse model [1]; 28 days): decreases
iWAT/Body weight % (DIO mouse model [1]; 28 days): significant decrease
plasma cholesterol (DIO mouse model [1]; 28 days): decreases
insulin levels (DIO mouse model [1]; day 28): decreases
plasma ALT (DIO mouse model [1]; day 28): decreases
plasma AST (DIO mouse model [1]; day 28): decreases
liver ALT (DIO mouse model [2]): decreases in triglycerides and ALT with treatment they did not achieve statistical significance
liver AST (DIO mouse model [2]): significant decrease
liver total cholesterol (TC) (DIO mouse model [2]): significant decrease
liver triglycerides (DIO mouse model [2]): decreases in triglycerides and ALT with treatment they did not achieve statistical significance

O=c1[nH]cnc2c(CN3C[C@H](CO)[C@@H](O)C3)c[nH]c12 [Glutarate Type B]
form conversion on cooling back to RT ([3]; after heating to 130 °C, cooled to RT): quickly converted to glutarate Type A
solid form stability ([3]; ambient condition): meta-stable form at ambient condition

O=c1[nH]cnc2c(CN3C[C@H](CO)[C@@H](O)C3)c[nH]c12 [Glutarate Type C]
form change after heating to 110 °C ([3]; 110 °C): no form change
form change after drying ([3]; RT overnight): no form change
Form change after heating ([3]; after heating): No
stability compared with glutarate Type A ([3]; drying under ambient condition): lower stability compared with glutarate Type A
form conversion after drying under ambient condition ([3]; wet cakes from screening, ~25 °C/30% RT): (partially) converted to glutarate Type A
form conversion after drying under ambient condition ([3]; wet cakes, ~6 h (~20 °C/32% RH)): converted to glutarate Type A
